The results in this text go back to paper PMC9296036, “A peptide interfering with the dimerization of oncogenic KITENIN protein and its stability suppresses colorectal tumour progression” (Clinical and Translational Medicine, 2022).

Series [1] can be described thus: Detection of KDIP and truncated forms in tumour and liver tissue by LC-MS/MS (MRM) after intravenous injection. The class given is in vivo, mouse. The following applies: tissues collected 20 min after fifth intravenous injection of KDIP 5 mg/kg, below the limit of detection. The protocol: At 20 min after fifth intravenous injection of KDIP, tumour and liver tissues were collected, immediately frozen using liquid nitrogen and ground with a pestle and mortar. One part of resultant powder by weight was homogenized with two parts of lysis buffer containing 8‐M urea, 25‐mM Tris–HCl (pH 8.5) by volume and was placed in Eppendorf tubes. This lysate was sonicated three times for 2 s with 2‐s intervals of rest at 20% amplitude on ice. Insoluble debris was removed by obtaining supernatant after centrifugation at 14 000 g, 4°C for 15 min.
Peptide extraction from serum or tissue lysate was performed by solid‐phase extraction using Oasis HLB Cartridge 1‐cm^3 (30 mg). HLB cartridges were conditioned using ACN (1 ml) and 50% ACN, .5% FA (1 ml), followed by equilibration using .5% FA (2 ml). A volume of 10‐μl serum and 20 μl of tissue lysate were added by .5% FA to be 1 ml and were loaded on equilibrated cartridges. Cartridges were washed with .5% FA (3 ml), and then peptide was eluted by 50% ACN, .5% FA (500 μl). Eluates were vacuum‐dried using Speed‐Vac and were stored at −80°C until use. Dried samples were reconstituted in .5% FA 50 and 5 μl of sample was loaded on column for LC–MS/MS analysis.
(§1) Each sample was analysed using an Agilent 1100 Series high‐performance liquid chromatography pump (Agilent Technologies, USA) coupled to an LTQ linear ion trap mass spectrometer (Thermo Finnigan, USA). Separation of peptide was carried out on a homemade C18‐fused silica column (100‐μm internal diameter) with nano‐electrospray ionization interface. […] Peptide was quantified by multiple reaction monitoring (MRM) in positive ion mode, with a spray voltage of 2.3 kV. […] Furthermore, truncated forms ([…], […]) of KDIP that were detected during stability test were also analysed by following transitions: 468.5 → 404.8 (b16 ^+5), 468.5 → 444.85 (b18 ^+5), 468.5 → 505.7 (b16 ^+4), 468.5 → 551.35 (b18 + H2O^+4), 468.5 → 555.7 (b18 ^+4), 528.45 → 448.85 (b14 ^+4), 528.45 → 499.0 (b16 ^+4), 528.45 → 598.15 (b14 ^+3), 528.45 → 659.25 (b16 + H2O^+3) and 528.45 → 664.95 (b16 ^+3). […]

For a further series, the system named is CT-26/iRFP/KITENIN cells. In words: Transwell cell invasion assay, CT-26/iRFP/KITENIN or CT-26/KITENIN-V5 cells. It is filed as cell-based, mouse. Particulars: increasing doses of KDIP, compared with scramble peptide.
Series [2] in a line: Stability of KDIP in mouse serum in vitro (LC-MS/MS). It is filed as in vitro ADME. The following applies: 10 pmol KDIP spiked to 10 μl serum, room temperature, 0-160 min (7 times), LC-MS/MS MRM, n=3 per time. The protocol: Experiment for stability in serum was conducted with seven different incubation time (0, 5, 10, 20, 40, 80, 160 min). KDIP 10 pmol was spiked to 10 μl of serum, and samples were incubated at room temperature. Samples for each incubation time were triplicated.
Peptide extraction from serum or tissue lysate was performed by solid‐phase extraction using Oasis HLB Cartridge 1‐cm^3 (30 mg). HLB cartridges were conditioned using ACN (1 ml) and 50% ACN, .5% FA (1 ml), followed by equilibration using .5% FA (2 ml). A volume of 10‐μl serum and 20 μl of tissue lysate were added by .5% FA to be 1 ml and were loaded on equilibrated cartridges. […]
as §1, with “USA).” for “USA). Separation of peptide was carried out on a homemade C18‐fused silica column (100‐μm internal diameter) with nano‐electrospray ionization interface.”

Ends that are not written are not given here.

Regarding YARVRRRGPRRWRLVSDEAV [KDIP], the “detection in regressed tumour tissues or liver by mass spectrometry” value in series [1] is listed as “not detected”. In the series on CT-26/iRFP/KITENIN cells, the “cell invasion of CT-26/KITENIN-V5 cells (in words)” value is given as “significantly reduced”. In series [2], the “terminal half-life in mouse serum in vitro” value was 30.86 min.
